Assay results from patent US9115101B2 (Genentech, Inc., priority 2012, dated 2015).

Target: T1, RORc ligand binding domain (Homo sapiens, UniProt P51449)
T1 construct: host or cells: E. coli
T1 sequence (P51449 269-508 limits assumed): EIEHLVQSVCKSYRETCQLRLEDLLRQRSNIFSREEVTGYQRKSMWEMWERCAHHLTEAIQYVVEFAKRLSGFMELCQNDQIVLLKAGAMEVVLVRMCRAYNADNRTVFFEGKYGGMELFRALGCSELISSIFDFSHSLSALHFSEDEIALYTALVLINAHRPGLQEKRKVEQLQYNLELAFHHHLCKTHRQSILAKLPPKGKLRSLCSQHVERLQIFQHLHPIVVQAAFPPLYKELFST
Experiment: In Vitro RORc Ligand Binding Assay (25-[3H]hydroxycholesterol radioligand filtration)
Conditions: In Vitro RORc Ligand Binding Assay; Table 4; read-out: RORc IC50

| IC50 [nM] | Structure (SMILES) |
| --- | --- |
| 2040 | C[C@H]1CCC(c2ccccc2)S(=O)(=O)N1Cc1ccc(C(=O)N2CCCC(CO)C2)cc1 (stereo partly drawn) [Example 281, (3-Hydroxymethyl-piperidin-1-yl)-[4-((3S)-methyl-1,1-dioxo-6-phenyl-[1,2]thiazinan-2-ylmethyl)-phenyl]-methanone] |
| 1020 | CC(=O)N1CCN(c2ccc(CN3[C@@H](C)CCC(c4ccc(C#N)cc4)S3(=O)=O)c(F)c2)CC1 (single isomer, unassigned) [Example 172] |
| 64 | C[C@H]1CCC(c2ccccc2)S(=O)(=O)N1Cc1ccc(N2CCN(C(=O)CCC#N)CC2)cc1F (single isomer, unassigned) [Example 72] |
| 146 | C[C@H]1CCC(c2ccccc2)S(=O)(=O)N1Cc1ccc(N2CCC(S(=O)(=O)N(C)C)CC2)cc1F (single isomer, unassigned) [Example 103] |
| 108 | C[C@H]1CCC(c2ccccc2)S(=O)(=O)N1Cc1ccc(N2CCN(C3=CC(=O)CCC3)CC2)cc1F (stereo partly drawn) [Example 188, 3-{4-[3-Fluoro-4-((3S)-3-methyl-1,1-dioxo-6-phenyl-[1,2]thiazinan-2-ylmethyl)-phenyl]-piperazin-1-yl}-cyclohex-2-enone] |
| 75 | C[C@H]1CCC(c2ccccc2)S(=O)(=O)N1Cc1ccc(N2CCC(n3cnnc3)CC2)cc1 (single isomer, unassigned) [Example 213] |
| 132 | C[C@H]1CCC(c2ccccc2)S(=O)(=O)N1Cc1ccc(N[C@H]2C[C@H](n3cnnc3)C2)cc1F (stereo partly drawn) [Example 234, [3-Fluoro-4-((3S)-methyl-1,1-dioxo-6-phenyl-[1,2]thiazinan-2-ylmethyl)-phenyl]-(3-[1,2,4]triazol-4-yl-cyclobutyl)-amine] |
| 882 | CC(=O)N1CCN(c2ccc(CN3[C@@H](C)CCC(c4ccccc4)S3(=O)=O)c(F)c2)C[C@H]1C(=O)N(C)C (stereo partly drawn) [Example 379, (S)-1-Acetyl-4-[3-fluoro-4-((3S)-methyl-1,1-dioxo-6-phenyl-[1,2]thiazinan-2-ylmethyl)-phenyl]-piperazine-2-carboxylic acid dimethylamide] |
| 5500 | CC(=O)N1CCN(c2ccc(CN3[C@H](C)CCC(c4ccccc4)S3(=O)=O)cn2)CC1 (single isomer, unassigned) [Example 49] |
| 911 | C[C@H]1CCC(c2ccccc2)S(=O)(=O)N1Cc1ccc(C(=O)N2CCC[C@@H]2CO)cc1 (stereo partly drawn) [Example 291, (2-Hydroxymethyl-pyrrolidin-1-yl)-[4-((3S)-methyl-1,1-dioxo-6-phenyl-[1,2]thiazinan-2-ylmethyl)-phenyl]-methanone] |
| 103 | C[C@H]1CCC(c2ccccc2)S(=O)(=O)N1Cc1ccc(N2CCN(C(=O)CC#N)CC2)cc1F (single isomer, unassigned) [Example 69] |
| 55 | C[C@H]1CCC(c2ccccc2)S(=O)(=O)N1Cc1ccc(N2CCC(c3cc(O)no3)CC2)cc1F (single isomer, unassigned) [Example 153] |
| 247 | CC(=O)N1CCN(c2ccc(CN3CCCC(c4ccccc4)S3(=O)=O)c(F)c2)CC1 (single isomer, unassigned) [Example 1] |
| 44 | C[C@H]1CCC(c2ccccc2)S(=O)(=O)N1Cc1ccc(N2CCC(c3n[nH]c(=O)o3)CC2)cc1F (single isomer, unassigned) [Example 143] |
| 275 | C[C@H]1CCC(c2ccccc2)S(=O)(=O)N1Cc1ccc(N[C@H]2CC[C@H](n3cnnc3)CC2)cc1F (stereo partly drawn) [Example 232, [3-Fluoro-4-((3S)-methyl-1,1-dioxo-6-phenyl-[1,2]thiazinan-2-ylmethyl)-phenyl]-(4-[1,2,4]triazol-4-yl-cyclohexyl)-amine] |
| 4410 | C[C@H]1CCC(c2ccccc2)S(=O)(=O)N1Cc1ccc(C(=O)NC2CCC(O)CC2)cc1 (stereo partly drawn) [Example 274, N-(4-Hydroxy-cyclohexyl)-4-((3S)-methyl-1,1-dioxo-6-phenyl-[1,2]thiazinan-2-ylmethyl)-benzamide] |
| 104 | CC(=O)N1CCN(c2ccc(CN3C[C@H](C)OCC(c4ccccc4)S3(=O)=O)c(F)c2)CC1 (single isomer, unassigned) [Example 28] |

| IC50 [nM] | Structure (SMILES) |
| --- | --- |
| 11 | CC(=O)N1CCN(c2ccc(CN3CCCCC(c4ccccc4)S3(=O)=O)c(F)c2)CC1 (single isomer, unassigned) [Example 15, 1-{4-[4-(1,1-Dioxo-7-phenyl-[1,2]thiazepan-2-ylmethyl)-3-fluoro-phenyl]-piperazin-1-yl}-ethanone] |
| 8 | CC(=O)N1CCN(c2ccc(CN3CCCCC(c4ccccc4)S3(=O)=O)c(F)c2)[C@@H](C)C1 (single isomer, unassigned) [Example 335, 1-{4-[4-(1,1-Dioxo-7-phenyl-[1,2]thiazepan-2-ylmethyl)-3-fluoro-phenyl]-3-methyl-piperazin-1-yl}-ethanone] |
| 307 | CC(=O)N1CCN(c2ccc(CN3[C@@H](C)CCC(c4ccccc4C)S3(=O)=O)c(F)c2)CC1 (single isomer, unassigned) [Example 205] |
| 1100 | C[C@H]1CCC(c2ccccc2)S(=O)(=O)N1Cc1ccc(N2CCC(c3nncn3C)CC2)cc1F (single isomer, unassigned) [Example 138] |
| 2650 | C[C@H]1CCC(c2ccccc2)S(=O)(=O)N1Cc1ccc(C(=O)N2CCCCC2CO)cc1 (stereo partly drawn) [Example 280, (2-Hydroxymethyl-piperidin-1-yl)-[4-((3S)-methyl-1,1-dioxo-6-phenyl-[1,2]thiazinan-2-ylmethyl)-phenyl]-methanone] |
| 2810 | C[C@H]1CCC(c2ccccc2)S(=O)(=O)N1Cc1ccc(C(=O)NC2CCOCC2)cc1 (single isomer, unassigned) [Example 267] |
| 182 | CC(=O)N1CCN(c2ccc(CN3[C@@H](C)COCC(c4ccccc4)S3(=O)=O)c(F)c2)CC1 (single isomer, unassigned) [Example 24] |
| 20 | C[C@H]1CCC(c2ccccc2)S(=O)(=O)N1Cc1ccc(N2CCC3(COC3)C2)cc1F (single isomer, unassigned) [Example 107] |
| 78 | CC(=O)N1CCN(c2ccc(CN3[C@@H](C)CCC(c4ccccc4)S3(=O)=O)c(F)c2)C[C@@H]1C#N (stereo partly drawn) [Example 376, (R)-1-Acetyl-4-[3-fluoro-4-((3S)-methyl-1,1-dioxo-6-phenyl-[1,2]thiazinan-2-ylmethyl)-phenyl]-piperazine-2-carbonitrile] |
| 21 | CC[C@H]1CCC(c2ccccc2)S(=O)(=O)N1Cc1ccc(N2CCC(n3cnnc3)CC2)cc1F (single isomer, unassigned) [Example 228] |
| 24 | N#CCC(=O)N1CCN(c2ccc(CN3CCCCC(c4ccccc4)S3(=O)=O)c(F)c2)CC1 (single isomer, unassigned) [Example 302, 3-{4-[4-(1,1-Dioxo-7-phenyl-[1,2]thiazepan-2-ylmethyl)-3-fluoro-phenyl]-piperazin-1-yl}-3-oxo-propionitrile] |
| 37 | CC(=O)N1CCN(c2ccc(CN3C(C)CCCC(c4ccccc4)S3(=O)=O)c(F)c2)CC1 (single isomer, unassigned) [Example 330, 1-{4-[3-Fluoro-4-(3-methyl-1,1-dioxo-7-phenyl-[1,2]thiazepan-2-ylmethyl)-phenyl]-piperazin-1-yl}-ethanone] |
| 25 | C[C@H]1CCC(c2ccccc2)S(=O)(=O)N1Cc1ccc(N2CCC3(COC3)C2)cc1F (single isomer, unassigned) [Example 102] |
| 68 | CC(=O)N1CCN(c2ccc(CN3C4CCCC4CC(c4ccccc4)S3(=O)=O)c(F)c2)CC1 (single isomer, unassigned) [Example 252, 1-(4-(4-((2,2-dioxido-3-phenylhexahydro-cyclopenta[c][1,2]thiazin-1(3H)-yl)methyl)-3-fluorophenyl)piper-azin-1-yl)ethanone] |
| 1700 | C[C@H]1CCC(c2ccccc2)S(=O)(=O)N1Cc1ccc(N2CCn3c(n[nH]c3=O)C2)cc1F (single isomer, unassigned) [Example 157] |
| 237 | C[C@@H](O)C(=O)N1CCN(c2ccc(CN3CCCCC(c4ccccc4)S3(=O)=O)c(F)c2)CC1 (single isomer, unassigned) [Example 314, 1-{4-[4-(1,1-Dioxo-7-phenyl-[1,2]thiazepan-2-ylmethyl)-3-fluoro-phenyl]-piperazin-1-yl}-2-hydroxy-propan-1-one] |

| Structure (SMILES) | IC50 [nM] |
| --- | --- |
| C[C@H]1CCC(c2ccccc2)S(=O)(=O)N1Cc1ccc(C(=O)N2C3CCC2C(C(N)=O)C3)cc1 (stereo partly drawn) [Example 355, 7-[4-((3S)-Methyl-1,1-dioxo-6-phenyl-[1,2]thiazinan-2-ylmethyl)-benzoyl]-7-aza-bicyclo[2.2.1]heptane-2-carboxylic acid amide] | 510 |

Same assay, conditions: read-out: RORc IC50

| IC50 [nM] | Structure (SMILES) |
| --- | --- |
| 1130 | CC(=O)N1CCN(c2ccc(CN3[C@@H](C)CCC(c4ccccc4)S3(=O)=O)c(F)c2)[C@@H](C(=O)O)C1 (stereo partly drawn) [Example 434, (R)-4-Acetyl-1-[3-fluoro-4-((3S)-methyl-1,1-dioxo-6-phenyl-[1,2]thiazinan-2-ylmethyl)-phenyl]-piperazine-2-carboxylic acid] |
| 3520 | C[C@H]1CCC(c2ccccc2)S(=O)(=O)N1Cc1ccc(C(=O)NC2CCC(O)C2)cc1 (single isomer, unassigned) [Example 408] |
| 641 | C[C@H]1CCC(c2ccccc2)S(=O)(=O)N1Cc1ccc(OCC2CC2)cc1 (stereo partly drawn) [Example 431, 2-(4-Cyclopropylmethoxy-benzyl)-(3S)-methyl-6-phenyl-[1,2]thiazinane 1,1-dioxide] |
| 1880 | C[C@H]1CCC(c2ccccc2)S(=O)(=O)N1Cc1ccc(C(=O)NC2CCC(O)C2)cc1 (single isomer, unassigned) [Example 409] |
| 504 | C[C@H]1CCC(c2ccccc2)S(=O)(=O)N1Cc1ccc(N2CCn3c(cnc3CO)C2)cc1F (stereo partly drawn) [Example 404, {7-[3-Fluoro-4-((3S)-methyl-1,1-dioxo-6-phenyl-[1,2]thiazinan-2-ylmethyl)-phenyl]-5,6,7,8-tetrahydro-imidazo[1,5-a]pyrazin-3-yl}-methanol] |
